Data from patent US20240124444A1 (Celgene Corporation, priority 2020, published 2024).

Tested on: C. parvum strain UGA1
Test: C. parvum growth inhibition assay (Nluc luminescence in HCT-8 cells)
Assay type: cell-based, Cryptosporidium parvum
Conditions: Cryptosporidium parvum; for EC50: HCT-8, 48 h, C. parvum growth inhibition in HCT-8 cells, 48 hours, 6 concentrations 10-0.04 μM; for inhibition at 1 µM / inhibition at 10 µM: HCT-8; for inhibition at 1 µM: single point inhibition @ 1 uM, read-out: % inh @ 1 uM C. parvum; for inhibition at 10 µM: single point inhibition @ 10 uM, read-out: % inh @ 10 uM C. parvum
Protocol: C. parvum GROWTH INHIBITION ASSAYS
C. parvum growth inhibition was performed as described in Hulverson M A, Vinayak S, Choi R, Schaefer D A, Castellanos-Gonzalez A, Vidadala R S R, Brooks C F, Herbert G T, Betzer D P, Whitman G R, Sparks H N, Arnold S L M, Rivas K L, Barrett L K, White A C Jr, Maly D J, Riggs M W, Striepen B, Van Voorhis W C, Ojo K K. Bumped-Kinase Inhibitors for Cryptosporidiosis Therapy. J Infect Dis. 2017 Apr. 15; 215(8):1275-1284.
C. parvum strain UGA1 […] (ATCC, Manassas, VA) were prepared as described below. HCT-8 cells were inoculated onto 96-well plates were grown for 48 hours to 90%-100% confluence. C. parvum oocysts were then incubated for 10 minutes in 10% bleach at room temperature and washed with Dulbecco's phosphate-buffered saline. One thousand oocysts per well were applied to plates with Roswell Park Memorial Institute 1640 (RPMI) medium supplemented with 10% horse serum and 1% penicillin/streptomycin. Compounds of Formula (I), Formula (II), and Formula (III) were added to the plates at different concentrations and the plates were incubated for 48 hours. Following the incubation, the monolayers were lysed for 1 hour before a luciferase reagent was added, and relative luminescence units were determined.
For certain compounds of Formula I, Formula II, and Formula III, EC50 values were calculated using curves calculated from Prism after analysis of C. parvum growth inhibition at 6 different concentrations: 10, 3.33, 1.11, 0.37, 0.12, and 0.04 μM. […] For certain compounds of Formula I, Formula II, and Formula III, single point inhibition values of 0-33% (activity level D), between 33% and 66% (activity level E), and between 67% and 100% (activity level F) are also shown in Table 1 below.

Compound	EC50	inhibition at 1 µM	inhibition at 10 µM
Cc1cc(-c2cc3cnc(NC(=O)C4CC4)cc3n2CCN)ncn1 [Example 75, N-(1-(2-aminoethyl)-2-(6-methylpyrimidin-4-yl)-1H-pyrrolo[3,2-c]pyridin-6-yl)cyclopropanecarboxamide]	> 1 µM	–	–
O=C(Nc1cc2[nH]c(C(F)(F)F)cc2cn1)C1CCC1 [Example 76, N-(2-(trifluoromethyl)-1H-pyrrolo[3,2-c]pyridin-6-yl)cyclobutanecarboxamide]	> 1 µM	–	–
Cn1c(C(F)(F)F)cc2cnc(NC(=O)C3CC3)cc21 [Example 77, N-(1-methyl-2-(trifluoromethyl)-1H-pyrrolo[3,2-c]pyridin-6-yl)cyclopropanecarboxamide]	> 1 µM	–	–
CC(C)C(=O)Nc1cc2[nH]c(-c3ccncc3)cc2cn1 [Example 78, N-(2-(pyridin-4-yl)-1H-pyrrolo[3,2-c]pyridin-6-yl)isobutyramide]	> 1 µM	33 to 66%	67 to 100%
N#Cc1cc(-c2cc3cnc(Nc4cccc(-c5nnc[nH]5)c4)cc3[nH]2)ccn1 [Example 79, 4-(6-(3-(4H-1,2,4-triazol-3-yl)phenylamino)-1H-pyrrolo[3,2-c]pyridin-2-yl)picolinonitrile]	> 1 µM	33 to 66%	67 to 100%
Cn1cc(C(=O)Nc2cc3c(cn2)cc(-c2ccnc(NCC(F)(F)F)n2)n3CCO)cn1 [Example 80, N-(1-(2-hydroxyethyl)-2-(2-(2,2,2-trifluoroethylamino)pyrimidin-4-yl)-1H-pyrrolo[3,2-c]pyridin-6-yl)-1-methyl-1H-pyrazole-4-carboxamide]	> 1 µM	0 to 33%	33 to 66%
Cc1cc(-c2cc3cnc(N)cc3[nH]2)ccn1 [Example 81, 2-(2-methylpyridin-4-yl)-1H-pyrrolo[3,2-c]pyridin-6-amine]	> 1 µM	0 to 33%	33 to 66%
Cn1cc(C(=O)Nc2cc3[nH]c(-c4cnc[nH]4)cc3cn2)cn1 [Example 82, N-(2-(1H-imidazol-5-yl)-1H-pyrrolo[3,2-c]pyridin-6-yl)-1-methyl-1H-pyrazole-4-carboxamide]	> 1 µM	0 to 33%	33 to 66%
Cc1cc(-c2cc3cnc(NC(=O)C4CC4)cc3n2C)ccn1 [Example 83, N-(1-methyl-2-(2-methylpyridin-4-yl)-1H-pyrrolo[3,2-c]pyridin-6-yl)cyclopropanecarboxamide]	> 1 µM	0 to 33%	0 to 33%
Cc1cc(-c2cc3cnc(NC(=O)c4cnn(C5CCCC5)c4)cc3[nH]2)ccn1 [Example 84, 1-cyclopentyl-N-(2-(2-methylpyridin-4-yl)-1H-pyrrolo[3,2-c]pyridin-6-yl)-1H-pyrazole-4-carboxamide]	> 1 µM	67 to 100%	0 to 33%
Cn1cc(C(=O)Nc2cc3[nH]c(-c4ccnc(O[C@H]5CC[C@H](O)CC5)n4)cc3cn2)cn1 [Example 85, N-(2-(2-((1r,4r)-4-hydroxycyclohexyloxy)pyrimidin-4-yl)-1H-pyrrolo[3,2-c]pyridin-6-yl)-1-methyl-1H-pyrazole-4-carboxamide]	> 1 µM	67 to 100%	0 to 33%
Cc1cc(-c2cc3cnc(N(C)C(=O)C4CC4)cc3[nH]2)ccn1 [Example 86, N-methyl-N-(2-(2-methylpyridin-4-yl)-1H-pyrrolo[3,2-c]pyridin-6-yl)cyclopropanecarboxamide]	> 1 µM	33 to 66%	0 to 33%
COc1nccc(-c2cc3cnc(NC(=O)CC4COC4)cc3n2C)n1 [Example 87, N-(2-(2-methoxypyrimidin-4-yl)-1-methyl-1H-pyrrolo[3,2-c]pyridin-6-yl)-2-(oxetan-3-yl)acetamide]	> 1 µM	33 to 66%	0 to 33%
Cn1cc(C(=O)Nc2cc3[nH]c(C4CC4)cc3cn2)cn1 [Example 88, N-(2-cyclopropyl-1H-pyrrolo[3,2-c]pyridin-6-yl)-1-methyl-1H-pyrazole-4-carboxamide]	> 1 µM	33 to 66%	0 to 33%
Cn1cc(C(=O)Nc2cc3[nH]c(CCCO)cc3cn2)cn1 [Example 89, N-(2-(3-hydroxypropyl)-1H-pyrrolo[3,2-c]pyridin-6-yl)-1-methyl-1H-pyrazole-4-carboxamide]	> 1 µM	0 to 33%	0 to 33%
Cn1cc(C(=O)Nc2cc3[nH]c(-c4cncn4C)cc3cn2)cn1 [Example 90, 1-methyl-N-(2-(1-methyl-1H-imidazol-5-yl)-1H-pyrrolo[3,2-c]pyridin-6-yl)-1H-pyrazole-4-carboxamide]	> 1 µM	33 to 66%	0 to 33%

Compound	EC50	inhibition at 1 µM	inhibition at 10 µM
O=C(CC1COC1)Nc1cc2[nH]c(-c3ccnc(C(F)(F)F)n3)cc2cn1 [Example 91, 2-(oxetan-3-yl)-N-(2-(2-(trifluoromethyl)pyrimidin-4-yl)-1H-pyrrolo[3,2-c]pyridin-6-yl)acetamide]	> 1 µM	0 to 33%	0 to 33%
O=C(Nc1cc2[nH]c(-c3ccnc(C(F)(F)F)n3)cc2cn1)[C@H]1C[C@H](O)C1 [Example 92, (1r,3r)-3-hydroxy-N-(2-(2-(trifluoromethyl)pyrimidin-4-yl)-1H-pyrrolo[3,2-c]pyridin-6-yl)cyclobutanecarboxamide]	> 1 µM	33 to 66%	0 to 33%
Cc1cc(-c2cc3cnc(NC(=O)C4CC4)cc3n2CCO)ccn1 [Example 93, N-(1-(2-hydroxyethyl)-2-(2-methylpyridin-4-yl)-1H-pyrrolo[3,2-c]pyridin-6-yl)cyclopropanecarboxamide]	> 1 µM	0 to 33%	0 to 33%
O=C(Nc1cc2[nH]c(C3CCOCC3)cc2cn1)C1CC1 [Example 94, N-(2-(tetrahydro-2H-pyran-4-yl)-1H-pyrrolo[3,2-c]pyridin-6-yl)cyclopropanecarboxamide]	> 1 µM	0 to 33%	0 to 33%
Cc1cc(-c2cc3cnc(NC(=O)C4(C)CC4)cc3[nH]2)ccn1 [Example 95, 1-methyl-N-(2-(2-methylpyridin-4-yl)-1H-pyrrolo[3,2-c]pyridin-6-yl)cyclopropanecarboxamide]	> 1 µM	–	–
Cc1cc(-c2cc3cnc(NC(=N)C4CC4)cc3[nH]2)ccn1 [Example 96, N-(2-(2-methylpyridin-4-yl)-1H-pyrrolo[3,2-c]pyridin-6-yl)cyclopropanecarboximidamide]	> 1 µM	–	–
Cc1cc(-c2cc3cnc(NS(=O)(=O)C4CC4)cc3[nH]2)ccn1 [Example 97, N-(2-(2-methylpyridin-4-yl)-1H-pyrrolo[3,2-c]pyridin-6-yl)cyclopropanesulfonamide]	> 1 µM	–	–
Cc1cc(-c2cc3cnc(NC(=O)C4CCC4)cc3[nH]2)ncn1 [Example 98, N-(2-(6-methylpyrimidin-4-yl)-1H-pyrrolo[3,2-c]pyridin-6-yl)cyclobutanecarboxamide]	> 1 µM	–	–
Cc1nccc(-c2cc3cnc(NC(=O)C4CCC4)cc3[nH]2)n1 [Example 99, N-(2-(2-methylpyrimidin-4-yl)-1H-pyrrolo[3,2-c]pyridin-6-yl)cyclobutanecarboxamide]	> 1 µM	–	–
Cc1nccc(-c2cc3cnc(NC(=O)C4CC4)cc3n2C)n1 [Example 100, N-(1-methyl-2-(2-methylpyrimidin-4-yl)-1H-pyrrolo[3,2-c]pyridin-6-yl)cyclopropanecarboxamide]	> 1 µM	–	–
Cc1ncc(-c2cc3cnc(NC(=O)C4CC4)cc3[nH]2)s1 [Example 101, N-(2-(2-methylthiazol-5-yl)-1H-pyrrolo[3,2-c]pyridin-6-yl)cyclopropanecarboxamide]	> 1 µM	–	–
Cn1cc(-c2cc3cnc(NC(=O)C4CC4)cc3n2C)cn1 [Example 102, N-(1-methyl-2-(1-methyl-1H-pyrazol-4-yl)-1H-pyrrolo[3,2-c]pyridin-6-yl)cyclopropanecarboxamide]	> 1 µM	–	–
O=C(Nc1cc2[nH]c(-c3cnc(C(F)(F)F)s3)cc2cn1)C1CC1 [Example 103, N-(2-(2-(trifluoromethyl)thiazol-5-yl)-1H-pyrrolo[3,2-c]pyridin-6-yl)cyclopropanecarboxamide]	> 1 µM	–	–
O=C(Nc1cc2[nH]c(-c3nc(C(F)(F)F)cs3)cc2cn1)C1CC1 [Example 104, N-(2-(4-(trifluoromethyl)thiazol-2-yl)-1H-pyrrolo[3,2-c]pyridin-6-yl)cyclopropanecarboxamide]	> 1 µM	–	–
O=C(Nc1cc2[nH]c(C(F)(F)F)cc2cn1)C1CCOCC1 [Example 105, N-(2-(trifluoromethyl)-1H-pyrrolo[3,2-c]pyridin-6-yl)tetrahydro-2H-pyran-4-carboxamide]	> 1 µM	–	–
